Experimental data published in patent US6706663B2, “Herbicidal 3-heterocyclic substituted benzisothiazole and benzisoxazole compounds” (Wyeth, priority 2000, dated 2004).

Legend:
[1] = system: CHEAL (Chenopodium album); test: Preemergence herbicidal evaluation; format: in vivo, L.; conditions: preemergence, rated 4-5 weeks after treatment
In short: (§1)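 Visual 0–9 rating versus control (stand, vigor, malformation, size, chlorosis, overall appearance), scored four to five weeks post-treatment. Preemergence spray of aqueous acetone solution onto freshly seeded soil cups; plants grown under conventional greenhouse care.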

[2] = system: AMBEL (Ambrosia artemisifolia); test: Preemergence herbicidal evaluation; format: in vivo, L.; conditions: preemergence, rated 4-5 weeks after treatment
In short: as §1

[3] = system: CASOB (Cassia obtusifolia); test: Preemergence herbicidal evaluation; format: in vivo, L.; conditions: preemergence, rated 4-5 weeks after treatment
In short: as §1

[4] = system: IPOHE (Ipomoea hederacea); test: Postemergence herbicidal evaluation; format: in vivo, (L.) Jacq.
In short: (§2)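 Seedlings grown about two weeks in flats, sprayed, then kept under standard greenhouse care. Rated visually 4–5 weeks after treatment on a 0–9 scale (stand, vigour, malformation, size, chlorosis, overall appearance) relative to untreated control; repeat tests averaged.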

[5] = system: ABUTH (Abutilon theophrasti); test: Postemergence herbicidal evaluation; format: in vivo, Medic.
In short: as §2

ORYSAT (Rice, Tebonnet) [6] = test: Preemergence herbicidal evaluation; format: in vivo, Oryza sativa, (L.) Tebonnet; conditions: preemergence, rated 4-5 weeks after treatment
[7] = system: ABUTH (Abutilon theophrasti); test: Preemergence herbicidal evaluation; format: in vivo, Medic.; conditions: preemergence, rated 4-5 weeks after treatment
[8] = system: CHEAL (Chenopodium album); test: Postemergence herbicidal evaluation; format: in vivo, L.
In short: as §2

[9] = system: AMBEL (Ambrosia artemisifolia); test: Postemergence herbicidal evaluation; format: in vivo, L.
In short: as §2

[10] = system: CASOB (Cassia obtusifolia); test: Postemergence herbicidal evaluation; format: in vivo, L.
In short: as §2

[11] = system: ECHORC (Echinochloa oryzoides); test: Flooded paddy, preemergence weed control; format: in vivo, Echinochloa oryzoides (Ard.) Fritsch.; conditions: rated 3-4 weeks after treatment, 0-9 rating scale
In short: (§3)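 Visual 0-9 rating versus control, scoring stand, vigor, malformation, size, chlorosis and overall appearance. Silt loam soil, propagules in top 0.5 cm; flood depth 1.5–3 cm held for the whole test; greenhouse.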

ORYSAT (Rice, Tebonnet) [12] = test: Flooded paddy, post-transplant rice tolerance; format: in vivo, Oryza sativa, (L.) Tebonnet; conditions: flooded paddy, post-transplant rice, rated 3-4 weeks after treatment, 0-9 rating scale
In short: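 Visual 0-9 rating against a control, covering stand, vigor, malformation, size, chlorosis and overall appearance. Treatment was applied after transplanting paired ten-day-old seedlings into flooded silt loam, with water kept 1.5 to 3 cm deep on greenhouse benches.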

ZEAMX (Corn, Field) = test: Postemergence herbicidal evaluation; format: in vivo, Zea mays, L.
In short: as §2

ORYSAT (Rice, Tebonnet) [13] = test: Postemergence herbicidal evaluation; format: in vivo, Oryza sativa, (L.) Tebonnet
In short: as §2

[14] = system: SAGPY (Sagittaria pygmaea); test: Flooded paddy, preemergence weed control; format: in vivo, L.; conditions: rated 3-4 weeks after treatment, 0-9 rating scale
In short: as §3

[15] = system: TRZAWR (Wheat, Winter, cv Riband); test: Postemergence herbicidal evaluation; format: in vivo, Triticum aestivum
In short: as §2

[16] = system: TRZAWR (Wheat, Winter, cv Riband); test: Preemergence herbicidal evaluation; format: in vivo, Triticum aestivum; conditions: preemergence, rated 4-5 weeks after treatment
In short: as §1

[17] = system: ECHCG (Echinochloa crus-galli); test: Postemergence herbicidal evaluation; format: in vivo, (L.) Beau
In short: as §2

[18] = system: CYPSE (Cyperus serotinus); test: Flooded paddy, preemergence weed control; format: in vivo, Rottb.; conditions: rated 3-4 weeks after treatment, 0-9 rating scale
In short: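 Herbicidal effect was scored visually on a 0–9 scale against an untreated control 3–4 weeks after treatment. Compounds were applied preemergence as 50/50 v/v aqueous/acetone mixtures into flood water (1.5–3 cm deep over silt loam), at roughly 0.0080 to 0.1250 kg/ha active ingredient.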

## Cn1ccnc1-c1nsc2ccc(-n3c(=O)cc(C(F)(F)F)n(C)c3=O)cc12 [Compound 5, 1-methyl-3-[3-(1-methylimidazol-2-yl)-1,2-benzisothiazol-5-yl]-6-(trifluoromethyl)uracil]
[1]; Rate 0.0620 kg/ha
  CHEAL preemergence herbicidal rating: 9.0
[1]; Rate 0.1250 kg/ha
  CHEAL preemergence herbicidal rating: 9.0
[1]; Rate 0.2500 kg/ha
  CHEAL preemergence herbicidal rating: 9.0
[2]; Rate 0.0620 kg/ha
  AMBEL preemergence herbicidal rating: 8.5
[2]; Rate 0.1250 kg/ha
  AMBEL preemergence herbicidal rating: 9.0
[2]; Rate 0.2500 kg/ha
  AMBEL preemergence herbicidal rating: 9.0
[3]; Rate 0.0620 kg/ha
  CASOB preemergence herbicidal rating: 0.0
[3]; Rate 0.1250 kg/ha
  CASOB preemergence herbicidal rating: 1.0
[3]; Rate 0.2500 kg/ha
  CASOB preemergence herbicidal rating: 5.5
[4]; rate 0.0320 kg/ha
  Postemergence herbicidal rating, IPOHE: 9.0
[4]; rate 0.0620 kg/ha
  Postemergence herbicidal rating, IPOHE: 9.0
[5]; rate 0.0320 kg/ha
  Postemergence herbicidal rating, ABUTH: 9.0
[5]; rate 0.0620 kg/ha
  Postemergence herbicidal rating, ABUTH: 9.0
ORYSAT (Rice, Tebonnet) [6]; Rate 0.0620 kg/ha
  ORYSAT preemergence herbicidal rating: 3.0
ORYSAT (Rice, Tebonnet) [6]; Rate 0.1250 kg/ha
  ORYSAT preemergence herbicidal rating: 5.0
ORYSAT (Rice, Tebonnet) [6]; Rate 0.2500 kg/ha
  ORYSAT preemergence herbicidal rating: 7.5
[7]; Rate 0.0620 kg/ha
  ABUTH preemergence herbicidal rating: 7.0
[7]; Rate 0.1250 kg/ha
  ABUTH preemergence herbicidal rating: 9.0
[7]; Rate 0.2500 kg/ha
  ABUTH preemergence herbicidal rating: 9.0
[8]; rate 0.0320 kg/ha
  Postemergence herbicidal rating, CHEAL: 0.0
[8]; rate 0.0620 kg/ha
  Postemergence herbicidal rating, CHEAL: 2.0
[9]; rate 0.0320 kg/ha
  Postemergence herbicidal rating, AMBEL: 2.0
[9]; rate 0.0620 kg/ha
  Postemergence herbicidal rating, AMBEL: 9.0
[10]; rate 0.0320 kg/ha
  Postemergence herbicidal rating, CASOB: 0.0
[10]; rate 0.0620 kg/ha
  Postemergence herbicidal rating, CASOB: 2.0
[11]; rate 0.0320 kg/ha
  herbicidal rating, ECHORC: 0.0
[11]; rate 0.1250 kg/ha
  herbicidal rating, ECHORC: 2.0
ORYSAT (Rice, Tebonnet) [12]; rate 0.0320 kg/ha
  herbicidal rating, ORYSAT (rice tolerance): 2.0
ORYSAT (Rice, Tebonnet) [12]; rate 0.1250 kg/ha
  herbicidal rating, ORYSAT (rice tolerance): 3.0
ZEAMX (Corn, Field); rate 0.0320 kg/ha
  Postemergence herbicidal rating, ZEAMX: 4.5
ZEAMX (Corn, Field); rate 0.0620 kg/ha
  Postemergence herbicidal rating, ZEAMX: 5.5
ORYSAT (Rice, Tebonnet) [13]; rate 0.0320 kg/ha
  Postemergence herbicidal rating, ORYSAT: 2.0
ORYSAT (Rice, Tebonnet) [13]; rate 0.0620 kg/ha
  Postemergence herbicidal rating, ORYSAT: 3.0
[14]; rate 0.0320 kg/ha
  herbicidal rating, SAGPY: 0.0
[14]; rate 0.1250 kg/ha
  herbicidal rating, SAGPY: 0.0
[15]; rate 0.0320 kg/ha
  Postemergence herbicidal rating, TRZAWR: 2.5
[15]; rate 0.0620 kg/ha
  Postemergence herbicidal rating, TRZAWR: 3.5
[16]; Rate 0.0620 kg/ha
  TRZAWR preemergence herbicidal rating: 5.0
[16]; Rate 0.1250 kg/ha
  TRZAWR preemergence herbicidal rating: 7.0
[16]; Rate 0.2500 kg/ha
  TRZAWR preemergence herbicidal rating: 8.0
[17]; rate 0.0320 kg/ha
  Postemergence herbicidal rating, ECHCG: 0.0
[17]; rate 0.0620 kg/ha
  Postemergence herbicidal rating, ECHCG: 0.0
[18]; rate 0.0320 kg/ha
  herbicidal rating, CYPSE: 0.0
[18]; rate 0.1250 kg/ha
  herbicidal rating, CYPSE: 0.0

## Cc1csc(-c2nsc3ccc(-n4c(=O)cc(C(F)(F)F)n(C)c4=O)cc23)n1 [Compound 7, 1-methyl-3-[3-(4-methyl-2-thiazolyl)-1,2-benzisothiazol-5-yl]-6-(trifluoromethyl)uracil]
[1]; Rate 0.0620 kg/ha
  CHEAL preemergence herbicidal rating: 9.0
[1]; Rate 0.1250 kg/ha
  CHEAL preemergence herbicidal rating: 9.0
[1]; Rate 0.2500 kg/ha
  CHEAL preemergence herbicidal rating: 9.0
[2]; Rate 0.0620 kg/ha
  AMBEL preemergence herbicidal rating: 0.0
[2]; Rate 0.1250 kg/ha
  AMBEL preemergence herbicidal rating: 0.0
[2]; Rate 0.2500 kg/ha
  AMBEL preemergence herbicidal rating: 0.0
[3]; Rate 0.0620 kg/ha
  CASOB preemergence herbicidal rating: 0.0
[3]; Rate 0.1250 kg/ha
  CASOB preemergence herbicidal rating: 3.0
[3]; Rate 0.2500 kg/ha
  CASOB preemergence herbicidal rating: 9.0
[4]; rate 0.0320 kg/ha
  Postemergence herbicidal rating, IPOHE: 2.0
[4]; rate 0.0620 kg/ha
  Postemergence herbicidal rating, IPOHE: 9.0
[4]; rate 0.1250 kg/ha
  Postemergence herbicidal rating, IPOHE: 9.0
[5]; rate 0.0320 kg/ha
  Postemergence herbicidal rating, ABUTH: 9.0
[5]; rate 0.0620 kg/ha
  Postemergence herbicidal rating, ABUTH: 9.0
[5]; rate 0.1250 kg/ha
  Postemergence herbicidal rating, ABUTH: 9.0
ORYSAT (Rice, Tebonnet) [6]; Rate 0.0620 kg/ha
  ORYSAT preemergence herbicidal rating: 0.0
ORYSAT (Rice, Tebonnet) [6]; Rate 0.1250 kg/ha
  ORYSAT preemergence herbicidal rating: 0.0
ORYSAT (Rice, Tebonnet) [6]; Rate 0.2500 kg/ha
  ORYSAT preemergence herbicidal rating: 0.0
[7]; Rate 0.0620 kg/ha
  ABUTH preemergence herbicidal rating: 9.0
[7]; Rate 0.1250 kg/ha
  ABUTH preemergence herbicidal rating: 9.0
[7]; Rate 0.2500 kg/ha
  ABUTH preemergence herbicidal rating: 9.0
[8]; rate 0.0320 kg/ha
  Postemergence herbicidal rating, CHEAL: 4.0
[8]; rate 0.0620 kg/ha
  Postemergence herbicidal rating, CHEAL: 4.0
[8]; rate 0.1250 kg/ha
  Postemergence herbicidal rating, CHEAL: 9.0
[9]; rate 0.0320 kg/ha
  Postemergence herbicidal rating, AMBEL: 2.0
[9]; rate 0.0620 kg/ha
  Postemergence herbicidal rating, AMBEL: 4.0
[9]; rate 0.1250 kg/ha
  Postemergence herbicidal rating, AMBEL: 9.0
[10]; rate 0.0320 kg/ha
  Postemergence herbicidal rating, CASOB: 0.0
[10]; rate 0.0620 kg/ha
  Postemergence herbicidal rating, CASOB: 0.0
[10]; rate 0.1250 kg/ha
  Postemergence herbicidal rating, CASOB: 3.0
[11]; rate 0.0080 kg/ha
  herbicidal rating, ECHORC: 0.0
[11]; rate 0.0320 kg/ha
  herbicidal rating, ECHORC: 5.0
[11]; rate 0.1250 kg/ha
  herbicidal rating, ECHORC: 9.0
ORYSAT (Rice, Tebonnet) [12]; rate 0.0080 kg/ha
  herbicidal rating, ORYSAT (rice tolerance): 3.0
ORYSAT (Rice, Tebonnet) [12]; rate 0.0320 kg/ha
  herbicidal rating, ORYSAT (rice tolerance): 2.0
ORYSAT (Rice, Tebonnet) [12]; rate 0.1250 kg/ha
  herbicidal rating, ORYSAT (rice tolerance): 5.0
ZEAMX (Corn, Field); rate 0.0320 kg/ha
  Postemergence herbicidal rating, ZEAMX: 5.0
ZEAMX (Corn, Field); rate 0.0620 kg/ha
  Postemergence herbicidal rating, ZEAMX: 6.0
ZEAMX (Corn, Field); rate 0.1250 kg/ha
  Postemergence herbicidal rating, ZEAMX: 7.5
ORYSAT (Rice, Tebonnet) [13]; rate 0.0320 kg/ha
  Postemergence herbicidal rating, ORYSAT: 4.5
ORYSAT (Rice, Tebonnet) [13]; rate 0.0620 kg/ha
  Postemergence herbicidal rating, ORYSAT: 5.0
ORYSAT (Rice, Tebonnet) [13]; rate 0.1250 kg/ha
  Postemergence herbicidal rating, ORYSAT: 7.0
[14]; rate 0.0080 kg/ha
  herbicidal rating, SAGPY: 0.0
[14]; rate 0.0320 kg/ha
  herbicidal rating, SAGPY: 0.0
[14]; rate 0.1250 kg/ha
  herbicidal rating, SAGPY: 1.0
[15]; rate 0.0320 kg/ha
  Postemergence herbicidal rating, TRZAWR: 4.5
[15]; rate 0.0620 kg/ha
  Postemergence herbicidal rating, TRZAWR: 5.5
[15]; rate 0.1250 kg/ha
  Postemergence herbicidal rating, TRZAWR: 6.0
[16]; Rate 0.0620 kg/ha
  TRZAWR preemergence herbicidal rating: 0.0
[16]; Rate 0.1250 kg/ha
  TRZAWR preemergence herbicidal rating: 2.0
[16]; Rate 0.2500 kg/ha
  TRZAWR preemergence herbicidal rating: 2.0
[17]; rate 0.0320 kg/ha
  Postemergence herbicidal rating, ECHCG: 0.0
[17]; rate 0.0620 kg/ha
  Postemergence herbicidal rating, ECHCG: 0.0
[17]; rate 0.1250 kg/ha
  Postemergence herbicidal rating, ECHCG: 0.0
[18]; rate 0.0080 kg/ha
  herbicidal rating, CYPSE: 0.0
[18]; rate 0.0320 kg/ha
  herbicidal rating, CYPSE: 0.0
[18]; rate 0.1250 kg/ha
  herbicidal rating, CYPSE: 0.0
